Values quoted from earlier work in patent US10299480B2 (priority 2014, dated 2019).

How the values were obtained:
herpes virus = settings: 10 minute exposure
adenovirus = settings: 10 minute exposure, same conditions

N=C(NCCCCCCNC(=N)NC(=N)Nc1ccc(Cl)cc1)NC(=N)Nc1ccc(Cl)cc1.O=C(O)[C@H](O)[C@@H](O)[C@H](O)[C@H](O)CO.O=C(O)[C@H](O)[C@@H](O)[C@H](O)[C@H](O)CO [CHX, Chlorhexidine digluconate]
Reduction of the number of virus particles (herpes virus): 5-6 times
Effect on non-enveloped virus (poliovirus): virtually no effect
Effect on non-enveloped virus (adenovirus): virtually no effect
